US20250387428A1, “PETROLATUM-BASED PHMB COMPOSITIONS AND METHODS FOR THE TREATMENT OF INFLAMMATORY SKIN DISEASE” (priority 2024, published 2025)
Several values for one entry are separate records, joined by “and”; a condition that tells them apart may be missing. Identical values can stand only once. Entries after “also recorded” stand apart in the source; their conditions may differ.

Tested on: skin of albino New Zealand White rabbits
Test: Rabbit skin irritation, Primary Irritation Index
Settings: sulfate
Procedure: Within 24 hours to 4 hours before test application, the backs of female albino New Zealand White rabbits were clipped free of hair, exposing 2 test and 2 control areas on each side of the spine with a size of approximately 15 cm×15 cm. The two test sites are located on the left cranial section and the right caudal section of the dorsal region. The two control sites are located on the left caudal and right cranial section of the dorsal region. FIG. 4 depicts the arrangement of test and control sites. The exposed skin is wiped with alcohol and dried. Rabbits of acceptable skin quality were selected and used for testing.
A 25×25 mm gauze patch saturated with 0.5 mL of 0.9% NaCl is used for the control and applied to the clipped control sites. The patches are secured using hypoallergenic, waterproof, surgical tape over the test and control sites. The animal's trunk is securely wrapped so as to maintain the position of the patches. Patches are left applied for a minimum of four hours.
After patch removal, the test and control sites were then scored for erythema and edema at 1, 24, 48 and 72 hours after patch removal. Only the 24, 48, and 72 hour observations were scored and used for calculations. If no response was expected, testing was conducted using three animals per test article. If irritation was anticipated, one animal was tested initially. If the first animal received a score of 2 or less for either erythema or edema, 2 additional rabbits were used to conclude the test.
This total was divided by the total number of observations. The same was done for the control sites. […] These scores for each animal were added and divided by the total number of animals to give the Primary Irritation Index. […] For any response, the Maximum Irritation Response, the time of onset of the response and the time of maximum response was recorded.
To positively validate the test, 10% sodium dodecyl sulfate (SDS), which is a known dermal irritant, in petroleum jelly was applied to a 2.5 cm×2.5 cm gauze patch. As a negative control, 0.5 mL of 0.9% NaCl was applied to a 2.5 cm×2.5 cm gauze patch. A Primary Irritation Index in the moderate to severe range is considered a positive result. The test system and methods utilized were the same as described above.

[1] = per rabbit, test sites, 24, 48 and 72 hour observations after patch removal, patch at least four hours

For `CCCCCCCCCCCCOS(=O)(=O)[O-].[Na+]` [10% SDS, sodium dodecyl sulfate], the “Total Score Average” value (per rabbit (irritation index for each animal)) was “Total Score Average = 6.6; also recorded: Total Score Average = 7.3; also recorded: Total Score Average = 5.3”, the “ED (edema) score total” value [1] was 19 and 21 and 14 and the “ER (erythema) score total” value [1] was 21 and 23 and 18. For the same molecule, the “ER + ED = Total” value (per rabbit, test sites, 24, 48 and 72 hour observations) was 40 and 44 and 32.
